Article PMC10724293, “New ruthenium-xanthoxylin complex eliminates colorectal cancer stem cells by targeting the heat shock protein 90 chaperone” (Cell Death & Disease, 2023)
pIC50: −log10 of the molar value.

Tests used:
HCT116 cells [1] = assay: CRC experimental lung metastasis xenograft model; format: in vivo, C. B-17 SCID mice; details: 2 mg/kg i.p. every other day for 4 weeks; control 5.0 ± 0.5
Description: HCT116 cells (2 × 10^6 cells/100 μl) were injected into the tail vein of each mouse. The animals were then treated intraperitoneally (200 μl/animal) every other day for 4 weeks. […] The animals were euthanized with an anesthetic overdose (thiopental, 100 mg/kg) 1 day after treatment ended, and their lungs were excised and fixed in 4% formaldehyde. The number of lung macrometastases per animal was counted and processed for histological analysis.

CAL 27 = assay: Alamar blue cytotoxicity assay; format: cell-based, human; details: 72 h, read-out: IC50 and 95%CI
Description: (§1) The Alamar blue assay was used to determine cell viability as previously described. Cells were seeded into 96-well plates at a density of 7 × 10^3 cells per well for adherent cells or 3 × 10^4 cells per well for suspended cells. The drug was added to each well after 24 h of incubation for adherent cells or immediately for suspended cells and incubated for an additional 72 h. […] Each well received 100 µM resazurin (Sigma-Aldrich Co. St. Louis, MO, United States) four (for cell lines) or 24 (for primary culture) h before the end of the incubation. A SpectraMax 190 Microplate Reader (Molecular Devices, Sunnyvale, CA, USA) was used to measure absorbance at 570 and 600 nm.

KG-1a = assay: Alamar blue cytotoxicity assay; format: cell-based, human; details: 72 h, read-out: IC50 and 95%CI
Description: as §1

OVCAR-3 = assay: Alamar blue cytotoxicity assay; format: cell-based, human; details: 72 h, read-out: IC50 and 95%CI
Description: as §1

HCT116 = assay: Alamar blue cytotoxicity assay; format: cell-based, human; details: 72 h, read-out: IC50 and 95%CI
Description: as §1

HepG2 cells = details: C. B-17 SCID mice engrafted with HepG2 cells; cited from earlier work
HCT116 cells [2] = assay: Cell cycle distribution and internucleosomal DNA fragmentation by flow cytometry; format: cell-based, human
Description: For quantification of internucleosomal DNA fragmentation and cell cycle distribution, the cells were stained with PI using a solution containing 0.1% Triton X-100, 2 µg/ml PI, 0.1% sodium citrate, and 100 µg/ml RNAse (all from Sigma-Aldrich) and incubated in the dark for 15 min at room temperature. Finally, cell fluorescence was measured using flow cytometry.
For all flow cytometry analyses, cell fluorescence was measured with a BD LSRFortessa cytometer and analyzed by BD FACSDiva Software (BD Biosciences) and FlowJo Software 10 (FlowJo LLC; Ashland, OR, USA). At least 10,000 events were evaluated per sample for intracellular staining, and at least 30,000 events were acquired per sample for cell surface protein staining. FSC-A versus FCS-H and SCC-A versus SCC-H were used to remove the doublets. The analysis excluded cellular debris.

cis-[Ru(phen)2(xant)](PF6) [RXC]
mean number of pulmonary metastatic nodules (HCT116 cells [1]): 1.3 ± 0.4 | pIC50 (CAL 27): 5.27 | pIC50 (KG-1a): 5.64 | pIC50 (OVCAR-3): 5.83 | pIC50 (HCT116): 5.19 | tumor growth (HepG2 cells): suppressed tumor growth | DNA fragmentation (sub-G0/G1) (HCT116 cells [2]; 2.5 μM, 48 h, control […]): 7.1% | DNA fragmentation (sub-G0/G1) (HCT116 cells [2]; 2.5 μM, 72 h, control 2.0%): 18.8% | DNA fragmentation (sub-G0/G1) (HCT116 cells [2]; 5 μM, 48 h, control […]): 9.3% | DNA fragmentation (sub-G0/G1) (HCT116 cells [2]; 5 μM, 72 h, control 2.0%): 22.4% | cell cycle effect (HCT116 cells [2]; 10 μM, 24 h): cell cycle arrest in S-phase | DNA fragmentation (sub-G0/G1) (HCT116 cells [2]; 10 μM, 48 h, control […]): 9.6% | DNA fragmentation (sub-G0/G1) (HCT116 cells [2]; 10 μM, 72 h, control 2.0%): 34.3%
